Among the data in ChEMBL document CHEMBL3507680, “University of Dundee, Gates Library screen for HepG2 cell viability” are cytotoxicity values, retold here.

A short description of the data set: Human HepG2 cell viability assay in 384 well format. The note with it: HepG2 cells, read-out: Inhibition. It is filed as toxicity, cell-based. Also noted: dose 125 nL, time 70.5 hour; cytotoxicity at 70.5 h: concentration not given beside the values.

As for `Cc1cc(CNC(=O)C2CCC(=O)N(Cc3ccccc3F)C2)on1` (stereo unspecified), the cytotoxicity at 70.5 h is -2.07%.

For `CCc1cc(CNC(=O)C2CCC(=O)N(Cc3ccccc3F)C2)on1` (stereo unspecified), the cytotoxicity at 70.5 h was -9.72%.

For `Cc1cccc(SC2CCN(C(=O)CCCn3cnnn3)CC2)c1`, the cytotoxicity at 70.5 h was -15.1%.

`Cc1ccn(CCNc2ncnc3c2CCN(Cc2ncc[nH]2)CC3)n1`: the cytotoxicity at 70.5 h was -8.65%.

Consider `CC(C)(O)c1cn(C2CCN(C(=O)CCC3CCCC3)CC2)nn1`, for which the cytotoxicity at 70.5 h amounted to 27%.

Consider `COc1cccc(C2CCN2C(=O)c2cc(C(C)C)on2)c1` (stereo unspecified), for which the cytotoxicity at 70.5 h was -0.704%.

With `Cc1nsc(NC(=O)N2CCCCC2CCO)n1` (stereo unspecified), the cytotoxicity at 70.5 h was -6.53%.

Consider `CN1[C@@H](c2ccccc2)[C@@H](C(=O)NCC2CCOCC2)C[C@@]1(C)C(=O)O`, for which the cytotoxicity at 70.5 h is -11.8%.

In the case of `Cc1ccc(C2(O)CCN(C(=O)c3ccc(S(N)(=O)=O)cc3)CC2)nc1`, the cytotoxicity at 70.5 h was -12.2%.

Consider `CC(c1ccon1)N(C)S(=O)(=O)NCc1ccccc1` (stereo unspecified), for which the cytotoxicity at 70.5 h is -2.95%.

Take `Cc1cnccc1NCCNC1CCN(CC(C)C)CC1`: the cytotoxicity at 70.5 h stood at 2.02%.

On to `Cn1cc2ncn([C@H]3CCN(Cc4ccccc4)C3)c(=O)c2n1`, for which the cytotoxicity at 70.5 h is -6.58%.

Consider `CCCn1nccc1C(=O)N1CCN(C2CCc3ccccc3C2)CC1` (stereo unspecified), for which the cytotoxicity at 70.5 h was -7.89%.

`CCC(CO)N(C/C(C)=C/c1ccco1)Cc1ccsc1` (stereo unspecified): the cytotoxicity at 70.5 h came to 3.15%.

With `Cc1cc(C(=O)N2CCCCC2c2nc3cc(F)ccc3[nH]2)no1` (stereo unspecified), the cytotoxicity at 70.5 h is 27.9%.

In the case of `NC1CCCCN(Cc2ccccc2CS(=O)(=O)c2ccccc2)C1` (stereo unspecified), the cytotoxicity at 70.5 h is -8.29%.

With `CCc1nc(C)c([C@H]2CN(C)C[C@@H]2C(=O)Nc2ccc(OC)nc2)[nH]1`, the cytotoxicity at 70.5 h was -1.87%.

Turning to `CN1CCC2(CC1)CN(C(=O)c1cccc3cccnc13)CCN2C`, the cytotoxicity at 70.5 h was -8.6%.

On to `O=C(O)c1ccc(N2CCC(Oc3cccc(F)c3)CC2)nc1`, for which the cytotoxicity at 70.5 h was found to be 14.5%.

For `CCN(CC)C(=O)c1ccc(Cl)c(NC(=O)c2cnc(C)cn2)c1`, the cytotoxicity at 70.5 h is -7.02%.

As to `CCCn1cc(-c2cc(-c3c[nH]cn3)c(C#N)c(N)n2)c(C)n1`, the cytotoxicity at 70.5 h was 3.58%.

As to `CCC(C(=O)NCC1=CCCN(C)C1)c1ccccc1` (stereo unspecified), the cytotoxicity at 70.5 h is -13.4%.

`N#Cc1ccnc(N2CCC(NCCN3CCCC3)CC2)c1`: the cytotoxicity at 70.5 h was -6.96%.

`Cc1ccc(-c2n[nH]cc2CN(Cc2nccn2C)C(C)C)cc1C`: the cytotoxicity at 70.5 h was -5.49%.

`CSCC(=O)N1CCc2nc(C)nc(NCc3ccccc3)c2CC1`: the cytotoxicity at 70.5 h is -5.43%.

Consider `CS(=O)(=O)N1CCN(C(=O)c2ccco2)[C@H]2CS(=O)(=O)C[C@H]21`, for which the cytotoxicity at 70.5 h was 15.1%.

`CN(Cc1csc(-c2cccs2)n1)C(=O)CN1CCOC1=O`: the cytotoxicity at 70.5 h is -3.58%.

Regarding `Cc1nn(C)cc1C(=O)N1CCCN(C2Cc3ccccc3C2)CC1`, the cytotoxicity at 70.5 h worked out at 14.3%.

On to `CS(=O)(=O)c1ccc(CN2C[C@H]3CC[C@@H]2CN(c2ncccn2)C3)cc1`, for which the cytotoxicity at 70.5 h was -5.94%.

In the case of `COC(=O)c1cccc(CN(C)C(C)c2ccccn2)c1` (stereo unspecified), the cytotoxicity at 70.5 h was -24.9%.

For `COc1ccccc1C(=O)N1CCN(C(=O)CCCc2cn[nH]c2)CC1`, the cytotoxicity at 70.5 h is -6.9%.

Regarding `CCn1nc(C)cc1C(=O)N1CCCN(CCCc2ccccc2)CC1`, the cytotoxicity at 70.5 h worked out at 1.03%.

On to `Cc1cc(C(=O)N(C)Cc2nc(-c3ccccn3)no2)c(C)o1`, for which the cytotoxicity at 70.5 h was -4.74%.

Regarding `CNc1ncc(C(=O)N2CCC(CCc3ccccc3)CC2)cn1`, the cytotoxicity at 70.5 h is 13.7%.

As to `CCCN1CCN(Cc2cccc(OCC(N)=O)c2)[C@H]2CS(=O)(=O)C[C@H]21`, the cytotoxicity at 70.5 h turned out to be 0.755%.

For the compound `CCOc1ncccc1CN1Cc2ncccc2C1=O`, the cytotoxicity at 70.5 h is -6.82%.

With `CCn1cncc1Cn1ncc2ccccc2c1=O`, the cytotoxicity at 70.5 h was -7.38%.

For `CCN1CCCC2(CCN(Cc3nnc(C4CC4)o3)C2)C1=O` (stereo unspecified), the cytotoxicity at 70.5 h was determined as 0.731%.

As to `CC(C)Cn1c(=O)n(CCCn2cccn2)c2cc(C(=O)O)cnc21`, the cytotoxicity at 70.5 h was -10.8%.

Regarding `CC[C@@]1(O)CCN(C(=O)c2ccc(CN3CCCCCC3)cc2)C[C@H]1O`, the cytotoxicity at 70.5 h was -3.75%.

As for `CN(Cc1cccc(-n2cccn2)c1)C(=O)c1cccc(N(C)C)c1`, the cytotoxicity at 70.5 h was -10.6%.

On to `CCCc1nnc(NC2CCN(C3CCOCC3)CC2)o1`, for which the cytotoxicity at 70.5 h is -9.47%.

Regarding `CN(Cc1cc[nH]n1)C(C(=O)O)c1ccc(Cl)cc1` (stereo unspecified), the cytotoxicity at 70.5 h is -4.85%.

Take `COc1ncccc1C1CC(=O)NCc2nc3sccn3c21` (stereo unspecified): the cytotoxicity at 70.5 h was -12.8%.

Take `COc1ccccc1N1CCN(C(=O)CCn2nnnc2C)CC1(C)C`: the cytotoxicity at 70.5 h is 19.3%.

As for `O=C1O[C@@H]2CN(C3CCOCC3)C[C@@H]2N1CCCc1ccc(F)cc1`, the cytotoxicity at 70.5 h was 14.2%.

Turning to `Cc1cc(CN(C)C(C(=O)O)c2ccc(C(C)(C)C)cc2)on1` (stereo unspecified), the cytotoxicity at 70.5 h is -5.92%.

In the case of `Nc1cc(-c2cccc3c2CCNC3)ncn1`, the cytotoxicity at 70.5 h is -6.17%.

Take `Cc1ccc(CCNc2nc(-c3ccncc3)nc3c2CCNCC3)o1`: the cytotoxicity at 70.5 h came to 2.56%.

As for `CC(C)Cc1cc(C(=O)N2CC(OCc3ccccc3F)C2)n(C)n1`, the cytotoxicity at 70.5 h is -2.8%.

On to `COc1cccc(C(=O)N2CCc3c(nc(N)[nH]c3=O)C2)c1OC`, for which the cytotoxicity at 70.5 h was -2.24%.

Take `CS(=O)(=O)CCN1CC(c2ccccc2)(c2ccccc2)CCC1=O`: the cytotoxicity at 70.5 h turned out to be 22.9%.

For `Cc1ncsc1-c1nc(CC2CCN(C)CC2)nn1Cc1ccccc1`, the cytotoxicity at 70.5 h was 8.01%.

Take `COc1ccc([C@@H]2CN(C(=O)CS(C)(=O)=O)C[C@H]2NC(C)=O)cc1`: the cytotoxicity at 70.5 h is -2.94%.

For the compound `CNC(=O)[C@@H]1C[C@@H](N)CN1c1nnc(-c2ccccc2)s1`, the cytotoxicity at 70.5 h was -4.95%.

For `CCn1ncnc1C(C)NC(=O)COc1ccc(Cl)cc1Cl` (stereo unspecified), the cytotoxicity at 70.5 h is -10.4%.

For `Cc1nn(C)c(C)c1C(C(=O)O)N1CCc2ccccc2C1` (stereo unspecified), the cytotoxicity at 70.5 h is 0.959%.

Regarding `CC(=O)NCc1cccc(-n2ccnc2-c2cccc(C(=O)O)c2)c1`, the cytotoxicity at 70.5 h was 16.6%.

Regarding `CSc1nc(C)cc(N2CCC(c3ncc[nH]3)CC2)n1`, the cytotoxicity at 70.5 h is -2.3%.

As to `CN(CCCOc1ccccc1Cl)C(=O)CN1C[C@@H]2CC[C@H](CC1=O)N2`, the cytotoxicity at 70.5 h is -2.68%.

As for `CN(C)CC(c1ccccc1)N(C)C(=O)c1cccc(NCC(=O)O)c1` (stereo unspecified), the cytotoxicity at 70.5 h is -0.106%.

`CSc1ccccc1NC(=O)N1C[C@@H](N(C)C)[C@H](c2ccc(C)cc2)C1`: the cytotoxicity at 70.5 h is -13.9%.

Take `COc1cccc(OC)c1C(C(=O)O)N(C)Cc1c(C)n[nH]c1C` (stereo unspecified): the cytotoxicity at 70.5 h was -14.8%.

As to `O=C1CCCc2occ(C(=O)N3CCCC4(CCNC4)C3)c21` (stereo unspecified), the cytotoxicity at 70.5 h is -7.04%.

Regarding `c1cnnc(-c2noc(CCN3CCCO3)n2)c1`, the cytotoxicity at 70.5 h is -10.9%.

For the compound `Cc1ccccc1CCC1CCCN(Cc2nnc(-c3ccco3)o2)C1` (stereo unspecified), the cytotoxicity at 70.5 h was -12.7%.

Regarding `Cc1nn(CC(=O)O)c(C)c1NS(=O)(=O)c1cccc2ccccc12`, the cytotoxicity at 70.5 h is -6.18%.

Turning to `COCCCN(Cc1cnc(-c2ccccn2)nc1)C1CCN(C)CC1`, the cytotoxicity at 70.5 h was -22.2%.

Turning to `CCOC(=O)N1CCC(NC(C)c2ccccc2-n2cccn2)CC1` (stereo unspecified), the cytotoxicity at 70.5 h was 35.4%.

`OC1(CNCCCN2CCc3ccccc32)CCNC1` (stereo unspecified): the cytotoxicity at 70.5 h worked out at 22.2%.

On to `Cc1ccccc1-n1cc(-c2ccnc(N[C@H](CO)C(C)C)n2)cn1`, for which the cytotoxicity at 70.5 h was -14.1%.

For the compound `CCOc1ccc2[nH]c(=O)c(CN3CCCC3c3ccccn3)cc2c1` (stereo unspecified), the cytotoxicity at 70.5 h was -11.8%.

Take `Cc1ccc(C(=O)N2CCC(n3cc(CO)nn3)CC2)cn1`: the cytotoxicity at 70.5 h stood at 11%.

Regarding `CSCc1noc(CNS(=O)(=O)c2cccc(C(=O)NC3CC3)c2)n1`, the cytotoxicity at 70.5 h is -10.1%.

As for `Cc1nonc1CN1CC[C@@](O)(C2CCC2)[C@H](C)C1`, the cytotoxicity at 70.5 h was -3.97%.

Consider `CN(C)C(=O)CN1C[C@@H]2CC[C@H](C1)N(Cc1ccccc1OCCO)C2`, for which the cytotoxicity at 70.5 h was -9.08%.

`CC(C)OC(=O)c1ccc(Cl)c(NC(=O)NCCN2CCOCC2)c1`: the cytotoxicity at 70.5 h is -7.91%.

For the compound `Cc1ncsc1CCC(=O)NCc1csc(N2CCCC2)n1`, the cytotoxicity at 70.5 h was -6.59%.

As for `COc1ccccc1-n1c(CC(C)C)nnc1SCC(=O)O`, the cytotoxicity at 70.5 h is -2.95%.

`CCCc1nc(CNC(=O)Cc2cc(C)no2)cs1`: the cytotoxicity at 70.5 h amounted to 19.8%.

As for `COc1ccc2c(c1)OCC(Cc1ccc(CN)cn1)C2` (stereo unspecified), the cytotoxicity at 70.5 h was -7.48%.

As for `CCc1ncc(CN2CCCN(CC3CC3)C(C(C)C)C2)cn1` (stereo unspecified), the cytotoxicity at 70.5 h came out at 9.86%.

On to `Cc1ccccc1-c1noc(C2CC(C(C)C)=NO2)n1` (stereo unspecified), for which the cytotoxicity at 70.5 h is -0.419%.

With `Cc1cc(N(C)CCCn2cccn2)nc(-c2cccnc2)n1`, the cytotoxicity at 70.5 h stood at 11.2%.

Turning to `CN(C)c1ncc(-c2c(-c3ccccc3)ncn2C(CO)C(=O)O)cn1` (stereo unspecified), the cytotoxicity at 70.5 h was -10.8%.

For the compound `COc1cccc(-c2n[nH]cc2-c2nc(CC3CCN(C)CC3)no2)c1`, the cytotoxicity at 70.5 h was -6.75%.

On to `COc1cccc2c1OCC(C(=O)NCCc1nnc(C)s1)C2` (stereo unspecified), for which the cytotoxicity at 70.5 h came to 8.68%.

Regarding `CC(Cn1cncn1)NC(=O)c1cn(Cc2ccccc2F)nn1` (stereo unspecified), the cytotoxicity at 70.5 h turned out to be 0.213%.

For `O=C(C1CCS(=O)(=O)CC1)N1CCC(Cc2ccc(F)cc2)CC1`, the cytotoxicity at 70.5 h worked out at 3.44%.

As for `Cc1ccc(F)c(OC2(C(=O)O)CCN(C(=O)c3ccncc3)CC2)c1`, the cytotoxicity at 70.5 h was -4.46%.

In the case of `COc1cccc(OCC2CCCN(C(=O)c3cc(C)n[nH]3)C2)c1` (stereo unspecified), the cytotoxicity at 70.5 h was 4.2%.

As for `CCn1cc(S(=O)(=O)NC2CCCN(CCCc3ccccc3)C2)cn1` (stereo unspecified), the cytotoxicity at 70.5 h is -1%.

`CCc1cn[nH]c1C1CCN(C(=O)c2cc(C#N)c(=O)[nH]c2C)CC1`: the cytotoxicity at 70.5 h is -3.13%.

For the compound `CN1CC2(CCCN(Cc3nnc(-c4cccc(F)c4)o3)C2)OC1=O` (stereo unspecified), the cytotoxicity at 70.5 h was -5.83%.

On to `Cc1cc(N2C[C@H](NC(=O)C3(C#N)CCOCC3)[C@@H](C(C)C)C2)ccn1`, for which the cytotoxicity at 70.5 h was -10.5%.

On to `Cc1cc(C)n(-c2ccc(C(=O)NCc3cncn3CC(C)C)cc2)n1`, for which the cytotoxicity at 70.5 h was -1.13%.
